In patent EP4603105A1, “PHARMACEUTICAL COMPOSITION CONTAINING CYCLIC COMPOUND HAVING SELECTIVE KRAS INHIBITORY EFFECT AGAINST HRAS AND NRAS” (CHUGAI SEIYAKU KABUSHIKI KAISHA, priority 2022, dated 2024):
Where a SMILES comes first, the peptide text is derived from it. Bridges are numbered along the chain shown (N, C = ends). [ ]: non-standard residue; d: D form. The star is where a group is joined. hPhe(3-Cl-4-CF3) = N[C@@H](CCc1ccc(C(F)(F)F)c(Cl)c1)C(=O)O; NPrPhe(4-CF3) = CCCN[C@@H](Cc1ccc(C(F)(F)F)cc1)C(=O)O; Piperazinyl(4-(3-oxetanyl)) = C1OCC1N1CCN(*)CC1; NMeAbu(4,4,4-F3) = CN[C@@H](CC(F)(F)F)C(=O)O; NMeGly(cPent) = CN[C@H](C(=O)O)C1CCCC1; NMeGly(cBu) = CN[C@H](C(=O)O)C1CCC1; Piperidide(4-Me) = CC1CCN(*)CC1; NMeD = CN[C@@H](CC(=O)O)C(=O)O; NMeL = CN[C@@H](CC(C)C)C(=O)O; Oxazolidin(3-yl) = C1CN(*)CO1; NMeNva = CCC[C@H](NC)C(=O)O; Azetidin(1-yl) = C1CN(*)C1; Morpholide = C1CN(*)CCO1; NMeA = CN[C@@H](C)C(=O)O; Piperidide = C1CCN(*)CC1; Pyrrolidide = C1CCN(*)C1; Ac5c = NC1(C(=O)O)CCCC1; Aze = O=C(O)[C@@H]1CCN1; X11 = CC1(C)CCN(*)C1; Sar = CNCC(=O)O

What was measured:
[1] = biological target: GDP-bound NRAS wild-type protein (Homo sapiens, UniProt P01111); experiment: Binding to NRAS by surface plasmon resonance (SPR), KD and KD ratio to KRAS; details: ratio of KD for GDP-bound NRAS wild-type protein to KD for KRAS
Chain of GDP-bound NRAS wild-type protein (P01111 whole entry): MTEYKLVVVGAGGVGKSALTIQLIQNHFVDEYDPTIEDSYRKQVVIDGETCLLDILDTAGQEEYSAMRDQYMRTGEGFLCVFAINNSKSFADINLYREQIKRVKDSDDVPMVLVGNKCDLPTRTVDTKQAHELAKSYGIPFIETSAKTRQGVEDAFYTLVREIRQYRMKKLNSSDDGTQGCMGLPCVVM
In short: (§1)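 Compound binding is evaluated by SPR single-cycle kinetics, with concentrations added intermittently from low to high for 75 s each. Target surfaces carry GDP-loaded biotinylated Avi-RAS at about 100–300 RU, regenerated after each cycle; temperature 30°C. A 1:1 binding model gives KD.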

[2] = biological target: HRAS wild-type protein (Homo sapiens, UniProt P01112); experiment: Binding to HRAS by surface plasmon resonance (SPR), KD and KD ratio to KRAS; details: ratio of KD for HRAS wild-type protein to KD for KRAS
Chain of HRAS wild-type protein (P01112 whole entry): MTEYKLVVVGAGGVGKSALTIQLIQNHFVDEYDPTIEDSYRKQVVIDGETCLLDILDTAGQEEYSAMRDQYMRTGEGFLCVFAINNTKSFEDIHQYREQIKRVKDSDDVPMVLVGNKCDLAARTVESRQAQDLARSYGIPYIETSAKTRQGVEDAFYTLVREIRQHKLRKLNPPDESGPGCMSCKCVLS
In short: as §1

[3] = test system: human lung cancer strain NCI-H441; type: cell-based
In short: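 Proliferation was scored by […] measured after the reagent was added to cultures kept at 37°C in 5% carbon dioxide.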

## CCCN1C(=O)CN(C)C(=O)CN(C)C(=O)[C@H]([C@@H](C)CC)NC(=O)[C@H](CC(C)C)N(C)C(=O)C[C@@H](C(=O)N2CCC(C)(C)C2)N(C)C(=O)[C@H](C2CCCC2)N(C)C(=O)C2(CCCC2)NC(=O)[C@@H]2CCCN2C(=O)[C@H](CCc2ccc(C(F)(F)F)c(Cl)c2)NC(=O)CN(C)C(=O)[C@@H]1Cc1ccc(C(F)(F)F)cc1 [PP0177] ([NMeL]I[Sar][Sar][NPrPhe(4-CF3)][Sar][hPhe(3-Cl-4-CF3)]P[Ac5c][NMeGly(cPent)][NMeD]-X11; lactam N-11)
[1]
  NRAS /KRAS: B (a compound having 3 or more and less than 10 is denoted as B)
[2]
  HRAS /KRAS: C (A compound having a KD ratio of 0.1 or more and less than 3 is denoted as C)
[3]
  IC50: 34.4 nM

## CCCN1C(=O)[C@@H]2CCN2C(=O)[C@H](C)N(C)C(=O)[C@H]([C@@H](C)CC)NC(=O)[C@H](CC(C)C)N(C)C(=O)C[C@@H](C(=O)N(C)C)N(C)C(=O)[C@H](C2CCCC2)N(C)C(=O)C2(CCCC2)NC(=O)[C@@H]2CCCN2C(=O)[C@H](CCc2ccc(C(F)(F)F)c(Cl)c2)NC(=O)CN(C)C(=O)[C@@H]1Cc1ccc(C(F)(F)F)cc1 [PP0178] ([NMeL]I[NMeA][Aze][NPrPhe(4-CF3)][Sar][hPhe(3-Cl-4-CF3)]P[Ac5c][NMeGly(cPent)][NMeD]-NMe2; lactam N-11)
[1]
  NRAS /KRAS: C (A compound having a KD ratio of 0.1 or more and less than 3 is denoted as C)
[2]
  HRAS /KRAS: B (a compound having 3 or more and less than 10 is denoted as B)
[3]
  IC50: 1.5 nM

## CCCN1C(=O)[C@@H]2CCN2C(=O)[C@H](C)N(C)C(=O)[C@H]([C@@H](C)CC)NC(=O)[C@H](CC(C)C)N(C)C(=O)C[C@@H](C(=O)N2CCCC2)N(C)C(=O)[C@H](C2CCCC2)N(C)C(=O)C2(CCCC2)NC(=O)[C@@H]2CCCN2C(=O)[C@H](CCc2ccc(C(F)(F)F)c(Cl)c2)NC(=O)CN(C)C(=O)[C@@H]1Cc1ccc(C(F)(F)F)cc1 [PP0179] ([NMeL]I[NMeA][Aze][NPrPhe(4-CF3)][Sar][hPhe(3-Cl-4-CF3)]P[Ac5c][NMeGly(cPent)][NMeD]-Pyrrolidide; lactam N-11)
[1]
  NRAS /KRAS: C (A compound having a KD ratio of 0.1 or more and less than 3 is denoted as C)
[2]
  HRAS /KRAS: B (a compound having 3 or more and less than 10 is denoted as B)
[3]
  IC50: 4.5 nM

## CCCN1C(=O)[C@@H]2CCN2C(=O)[C@H](C)N(C)C(=O)[C@H]([C@@H](C)CC)NC(=O)[C@H](CC(C)C)N(C)C(=O)C[C@@H](C(=O)N2CCCCC2)N(C)C(=O)[C@H](C2CCCC2)N(C)C(=O)C2(CCCC2)NC(=O)[C@@H]2CCCN2C(=O)[C@H](CCc2ccc(C(F)(F)F)c(Cl)c2)NC(=O)CN(C)C(=O)[C@@H]1Cc1ccc(C(F)(F)F)cc1 [PP0180] ([NMeL]I[NMeA][Aze][NPrPhe(4-CF3)][Sar][hPhe(3-Cl-4-CF3)]P[Ac5c][NMeGly(cPent)][NMeD]-Piperidide; lactam N-11)
[1]
  NRAS /KRAS: C (A compound having a KD ratio of 0.1 or more and less than 3 is denoted as C)
[2]
  HRAS /KRAS: C (A compound having a KD ratio of 0.1 or more and less than 3 is denoted as C)
[3]
  IC50: 7.5 nM

## CCCN1C(=O)[C@@H]2CCN2C(=O)[C@H](C)N(C)C(=O)[C@H]([C@@H](C)CC)NC(=O)[C@H](CC(C)C)N(C)C(=O)C[C@@H](C(=O)N2CCC2)N(C)C(=O)[C@H](C2CCCC2)N(C)C(=O)C2(CCCC2)NC(=O)[C@@H]2CCCN2C(=O)[C@H](CCc2ccc(C(F)(F)F)c(Cl)c2)NC(=O)CN(C)C(=O)[C@@H]1Cc1ccc(C(F)(F)F)cc1 [PP0181] ([NMeL]I[NMeA][Aze][NPrPhe(4-CF3)][Sar][hPhe(3-Cl-4-CF3)]P[Ac5c][NMeGly(cPent)][NMeD]-{Azetidin(1-yl)}; lactam N-11)
[1]
  NRAS /KRAS: C (A compound having a KD ratio of 0.1 or more and less than 3 is denoted as C)
[2]
  HRAS /KRAS: B (a compound having 3 or more and less than 10 is denoted as B)
[3]
  IC50: 1.5 nM

## CCCN1C(=O)[C@@H]2CCN2C(=O)[C@H](C)N(C)C(=O)[C@H]([C@@H](C)CC)NC(=O)[C@H](CC(C)C)N(C)C(=O)C[C@@H](C(=O)N2CCOC2)N(C)C(=O)[C@H](C2CCCC2)N(C)C(=O)C2(CCCC2)NC(=O)[C@@H]2CCCN2C(=O)[C@H](CCc2ccc(C(F)(F)F)c(Cl)c2)NC(=O)CN(C)C(=O)[C@@H]1Cc1ccc(C(F)(F)F)cc1 [PP0183] ([NMeL]I[NMeA][Aze][NPrPhe(4-CF3)][Sar][hPhe(3-Cl-4-CF3)]P[Ac5c][NMeGly(cPent)][NMeD]-{Oxazolidin(3-yl)}; lactam N-11)
[1]
  NRAS /KRAS: C (A compound having a KD ratio of 0.1 or more and less than 3 is denoted as C)
[2]
  HRAS /KRAS: B (a compound having 3 or more and less than 10 is denoted as B)
[3]
  IC50: 1.6 nM

## CCCN1C(=O)[C@@H]2CCN2C(=O)[C@H](C)N(C)C(=O)[C@H]([C@@H](C)CC)NC(=O)[C@H](CC(C)C)N(C)C(=O)C[C@@H](C(=O)N2CCN(C3COC3)CC2)N(C)C(=O)[C@H](C2CCCC2)N(C)C(=O)C2(CCCC2)NC(=O)[C@@H]2CCCN2C(=O)[C@H](CCc2ccc(C(F)(F)F)c(Cl)c2)NC(=O)CN(C)C(=O)[C@@H]1Cc1ccc(C(F)(F)F)cc1 [PP0184] ([NMeL]I[NMeA][Aze][NPrPhe(4-CF3)][Sar][hPhe(3-Cl-4-CF3)]P[Ac5c][NMeGly(cPent)][NMeD]-{Piperazinyl(4-(3-oxetanyl))}; lactam N-11)
[1]
  NRAS /KRAS: C (A compound having a KD ratio of 0.1 or more and less than 3 is denoted as C)
[2]
  HRAS /KRAS: B (a compound having 3 or more and less than 10 is denoted as B)
[3]
  IC50: 2.1 nM

## CCCN1C(=O)[C@@H]2CCN2C(=O)[C@H](C)N(C)C(=O)[C@H]([C@@H](C)CC)NC(=O)[C@H](CC(C)C)N(C)C(=O)C[C@@H](C(=O)N2CCC(C)CC2)N(C)C(=O)[C@H](C2CCCC2)N(C)C(=O)C2(CCCC2)NC(=O)[C@@H]2CCCN2C(=O)[C@H](CCc2ccc(C(F)(F)F)c(Cl)c2)NC(=O)CN(C)C(=O)[C@@H]1Cc1ccc(C(F)(F)F)cc1 [PP0185] ([NMeL]I[NMeA][Aze][NPrPhe(4-CF3)][Sar][hPhe(3-Cl-4-CF3)]P[Ac5c][NMeGly(cPent)][NMeD]-{Piperidide(4-Me)}; lactam N-11)
[1]
  NRAS /KRAS: C (A compound having a KD ratio of 0.1 or more and less than 3 is denoted as C)
[2]
  HRAS /KRAS: B (a compound having 3 or more and less than 10 is denoted as B)
[3]
  IC50: 32.2 nM

## CCCN1C(=O)[C@@H]2CCN2C(=O)[C@H](C)N(C)C(=O)[C@H]([C@@H](C)CC)NC(=O)[C@H](CC(C)C)N(C)C(=O)C[C@@H](C(=O)N2CCC(C)(C)C2)N(C)C(=O)[C@H](C2CCCC2)N(C)C(=O)C2(CCCC2)NC(=O)[C@@H]2CCCN2C(=O)[C@H](CCc2ccc(C(F)(F)F)c(Cl)c2)NC(=O)CN(C)C(=O)[C@@H]1Cc1ccc(C(F)(F)F)cc1 [PP0186] ([NMeL]I[NMeA][Aze][NPrPhe(4-CF3)][Sar][hPhe(3-Cl-4-CF3)]P[Ac5c][NMeGly(cPent)][NMeD]-X11; lactam N-11)
[1]
  NRAS /KRAS: C (A compound having a KD ratio of 0.1 or more and less than 3 is denoted as C)
[2]
  HRAS /KRAS: B (a compound having 3 or more and less than 10 is denoted as B)
[3]
  IC50: 20.5 nM

## CCCN1C(=O)CN(C)C(=O)CN(C)C(=O)[C@H]([C@@H](C)CC)NC(=O)[C@H](CC(F)(F)F)N(C)C(=O)C[C@@H](C(=O)N2CCOCC2)N(C)C(=O)[C@H](C2CCCC2)N(C)C(=O)C2(CCCC2)NC(=O)[C@@H]2CCCN2C(=O)[C@H](CCc2ccc(C(F)(F)F)c(Cl)c2)NC(=O)CN(C)C(=O)[C@@H]1Cc1ccc(C(F)(F)F)cc1 [PP0187] ([NMeAbu(4,4,4-F3)]I[Sar][Sar][NPrPhe(4-CF3)][Sar][hPhe(3-Cl-4-CF3)]P[Ac5c][NMeGly(cPent)][NMeD]-Morpholide; lactam N-11)
[1]
  NRAS /KRAS: B (a compound having 3 or more and less than 10 is denoted as B)
[2]
  HRAS /KRAS: C (A compound having a KD ratio of 0.1 or more and less than 3 is denoted as C)
[3]
  IC50: 3 nM

## CCCN1C(=O)CN(C)C(=O)CN(C)C(=O)[C@H]([C@@H](C)CC)NC(=O)[C@H](C2CCC2)N(C)C(=O)C[C@@H](C(=O)N2CCOCC2)N(C)C(=O)[C@H](C2CCCC2)N(C)C(=O)C2(CCCC2)NC(=O)[C@@H]2CCCN2C(=O)[C@H](CCc2ccc(C(F)(F)F)c(Cl)c2)NC(=O)CN(C)C(=O)[C@@H]1Cc1ccc(C(F)(F)F)cc1 [PP0188] ([NMeGly(cBu)]I[Sar][Sar][NPrPhe(4-CF3)][Sar][hPhe(3-Cl-4-CF3)]P[Ac5c][NMeGly(cPent)][NMeD]-Morpholide; lactam N-11)
[1]
  NRAS /KRAS: B (a compound having 3 or more and less than 10 is denoted as B)
[2]
  HRAS /KRAS: C (A compound having a KD ratio of 0.1 or more and less than 3 is denoted as C)
[3]
  IC50: 3.9 nM

## CCC[C@H]1C(=O)N[C@@H]([C@@H](C)CC)C(=O)N(C)CC(=O)N(C)CC(=O)N(CCC)[C@@H](Cc2ccc(C(F)(F)F)cc2)C(=O)N(C)CC(=O)N[C@@H](CCc2ccc(C(F)(F)F)c(Cl)c2)C(=O)N2CCC[C@H]2C(=O)NC2(CCCC2)C(=O)N(C)[C@@H](C2CCCC2)C(=O)N(C)[C@H](C(=O)N2CCOCC2)CC(=O)N1C [PP0189] ([NMeNva]I[Sar][Sar][NPrPhe(4-CF3)][Sar][hPhe(3-Cl-4-CF3)]P[Ac5c][NMeGly(cPent)][NMeD]-Morpholide; lactam N-11)
[1]
  NRAS /KRAS: B (a compound having 3 or more and less than 10 is denoted as B)
[2]
  HRAS /KRAS: C (A compound having a KD ratio of 0.1 or more and less than 3 is denoted as C)
[3]
  IC50: 3 nM
